ChEMBL document CHEMBL5579851, “Synthesis and antifungal evaluation of novel triazole derivatives bearing a pyrazole-methoxyl moiety” (Eur J Med Chem, 2024)
Converted amounts (≈) assume the structure as drawn.

Key:
[1] = Cytotoxicity against HUVEC cells assessed as cell viability at 128 ug/ml incubated for 24 hrs by CCK-8 assay relative to control; assay type: toxicity, cell-based; conditions: human, at 128 µg/mL, read-out: Activity
Saccharomyces cerevisiae [2] = assay: Antifungal activity against recombinant Saccharomyces cerevisiae Y2711 overexpressing CnErg11 assessed as inhibition of fungal growth incubated for 48 hrs by CLSI based broth microdilution assay; assay type: functional
Saccharomyces cerevisiae [3] = assay: Antifungal activity against recombinant Saccharomyces cerevisiae Y2459 overexpressing CaErg11/CaCpr assessed as inhibition of fungal growth incubated for 48 hrs by CLSI based broth microdilution assay; assay type: functional
Saccharomyces cerevisiae [4] = assay: Antifungal activity against recombinant Saccharomyces cerevisiae Y525 overexpressing CaMdr1 assessed as inhibition of fungal growth incubated for 48 hrs by CLSI based broth microdilution assay; assay type: functional
Saccharomyces cerevisiae [5] = assay: Antifungal activity against recombinant Saccharomyces cerevisiae Y2767 overexpressing CauErg11 assessed as inhibition of fungal growth incubated for 48 hrs by CLSI based broth microdilution assay; assay type: functional
Saccharomyces cerevisiae [6] = assay: Antifungal activity against recombinant Saccharomyces cerevisiae Y2765 overexpressing CauMdr1 assessed as inhibition of fungal growth incubated for 48 hrs by CLSI based broth microdilution assay; assay type: functional
Saccharomyces cerevisiae [7] = assay: Antifungal activity against recombinant Saccharomyces cerevisiae Y2300 overexpressing ScErg11 assessed as inhibition of fungal growth incubated for 48 hrs by CLSI based broth microdilution assay; assay type: functional
Saccharomyces cerevisiae [8] = assay: Antifungal activity against recombinant Saccharomyces cerevisiae Y2411 overexpressing ScErg11 assessed as inhibition of fungal growth incubated for 48 hrs by CLSI based broth microdilution assay; assay type: functional
Saccharomyces cerevisiae [9] = assay: Antifungal activity against recombinant Saccharomyces cerevisiae Y2766 overexpressing CauCdr1 assessed as inhibition of fungal growth incubated for 48 hrs by CLSI based broth microdilution assay; assay type: functional
Saccharomyces cerevisiae [10] = assay: Antifungal activity against recombinant Saccharomyces cerevisiae Y2374 overexpressing CgErg11 assessed as inhibition of fungal growth incubated for 48 hrs by CLSI based broth microdilution assay; assay type: functional
Saccharomyces cerevisiae [11] = assay: Antifungal activity against recombinant Saccharomyces cerevisiae Y2462 overexpressing ScErg11/ScNcp1 assessed as inhibition of fungal growth incubated for 48 hrs by CLSI based broth microdilution assay; assay type: functional
Saccharomyces cerevisiae [12] = assay: Antifungal activity against recombinant Saccharomyces cerevisiae Y2721 overexpressing CpErg11/CpCpr assessed as inhibition of fungal growth incubated for 48 hrs by CLSI based broth microdilution assay; assay type: functional
Saccharomyces cerevisiae [13] = assay: Antifungal activity against recombinant Saccharomyces cerevisiae Y570 overexpressing CaCdr1 assessed as inhibition of fungal growth incubated for 48 hrs by CLSI based broth microdilution assay; assay type: functional
Saccharomyces cerevisiae [14] = assay: Antifungal activity against recombinant Saccharomyces cerevisiae Y2768 overexpressing CauErg11 T132F mutant assessed as inhibition of fungal growth incubated for 48 hrs by CLSI based broth microdilution assay; assay type: functional
Saccharomyces cerevisiae [15] = assay: Antifungal activity against recombinant Saccharomyces cerevisiae Y2716 overexpressing CpErg11 Y132F mutant/ CpCpr assessed as inhibition of fungal growth incubated for 48 hrs by CLSI based broth microdilution assay; assay type: functional
Saccharomyces cerevisiae [16] = assay: Antifungal activity against recombinant Saccharomyces cerevisiae Y2769 overexpressing CauErg11 K143R mutant assessed as inhibition of fungal growth incubated for 48 hrs by CLSI based broth microdilution assay; assay type: functional
Saccharomyces cerevisiae [17] = assay: Antifungal activity against recombinant Saccharomyces cerevisiae Y2513 overexpressing ScErg11 Y140H mutant assessed as inhibition of fungal growth incubated for 48 hrs by CLSI based broth microdilution assay; assay type: functional
Saccharomyces cerevisiae [18] = assay: Antifungal activity against recombinant Saccharomyces cerevisiae Y2301 overexpressing ScErg11 Y140F mutant assessed as inhibition of fungal growth incubated for 48 hrs by CLSI based broth microdilution assay; assay type: functional
[Candida] auris [19] = Antifungal activity against fluconazole-resistant Candida auris 919 assessed as inhibition of fungal growth incubated for 48 hrs by CLSI based broth microdilution assay; assay type: functional; conditions: Candidozyma auris
Candida tropicalis [20] = assay: Potency index, ratio of fluconazole MIC to test compound MIC for antifungal activity against Candida tropicalis 8915 assessed as inhibition of fungal growth incubated for 48 hrs by CLSI based broth microdilution assay; assay type: functional
Candida tropicalis [21] = assay: Antifungal activity against Candida tropicalis 8915 assessed as inhibition of fungal growth incubated for 48 hrs by CLSI based broth microdilution assay; assay type: functional
Candida parapsilosis = assay: Antifungal activity against Candida parapsilosis 22019 assessed as inhibition of fungal growth incubated for 48 hrs by CLSI based broth microdilution assay; assay type: functional; conditions: Lodderomyces parapsilosis
Cryptococcus neoformans = assay: Antifungal activity against Cryptococcus neoformans 32609 assessed as inhibition of fungal growth incubated for 72 hrs by CLSI based broth microdilution assay; assay type: functional
[Candida] auris [22] = Antifungal activity against fluconazole-resistant Candida auris 918 assessed as inhibition of fungal growth incubated for 48 hrs by CLSI based broth microdilution assay; assay type: functional; conditions: Candidozyma auris
Candida albicans [23] = assay: Antifungal activity against Candida albicans 10231 assessed as inhibition of fungal growth incubated for 48 hrs by CLSI based broth microdilution assay; assay type: functional
Candida albicans [24] = assay: Antifungal activity against fluconazole-resistant Candida albicans 901 assessed as inhibition of fungal growth incubated for 48 hrs by CLSI based broth microdilution assay; assay type: functional
[Candida] auris [25] = Antifungal activity against fluconazole-resistant Candida auris 891 assessed as inhibition of fungal growth incubated for 48 hrs by CLSI based broth microdilution assay; assay type: functional; conditions: Candidozyma auris
Nakaseomyces glabratus = assay: Antifungal activity against Candida glabrata 537 assessed as inhibition of fungal growth incubated for 48 hrs by CLSI based broth microdilution assay; assay type: functional
Candida albicans [26] = assay: Antifungal activity against Candida albicans SC5314 assessed as inhibition of fungal growth incubated for 48 hrs by CLSI based broth microdilution assay; assay type: functional
Pichia kudriavzevii = assay: Antifungal activity against Candida krusei 4996 assessed as inhibition of fungal growth incubated for 48 hrs by CLSI based broth microdilution assay; assay type: functional
Candida albicans [27] = assay: Antifungal activity against fluconazole-resistant Candida albicans 904 assessed as inhibition of fungal growth incubated for 48 hrs by CLSI based broth microdilution assay; assay type: functional
Candida tropicalis [28] = assay: Potency index, ratio of ravuconazole MIC to test compound MIC for antifungal activity against Candida tropicalis 8915 assessed as inhibition of fungal growth incubated for 48 hrs by CLSI based broth microdilution assay; assay type: functional

SMILES	MIC (Saccharomyces cerevisiae [2])	MIC (Saccharomyces cerevisiae [3])	MIC (Saccharomyces cerevisiae [4])	MIC (Saccharomyces cerevisiae [5])	MIC (Saccharomyces cerevisiae [6])	MIC (Saccharomyces cerevisiae [7])	MIC (Saccharomyces cerevisiae [8])	MIC (Saccharomyces cerevisiae [9])	MIC (Saccharomyces cerevisiae [10])	MIC (Saccharomyces cerevisiae [11])	MIC (Saccharomyces cerevisiae [12])	MIC (Saccharomyces cerevisiae [13])	MIC (Saccharomyces cerevisiae [14])	MIC (Saccharomyces cerevisiae [15])	MIC (Saccharomyces cerevisiae [16])	MIC (Saccharomyces cerevisiae [17])	MIC (Saccharomyces cerevisiae [18])	also measured
C[C@@H]1[C@H](O)[C@@H](C)/C=C/C=C/C=C/C=C/C=C/C=C/C=C/[C@H](O[C@@H]2O[C@H](C)[C@@H](O)[C@H](N)[C@@H]2O)C[C@@H]2O[C@](O)(C[C@@H](O)C[C@@H](O)[C@H](O)CC[C@@H](O)C[C@@H](O)CC(=O)O[C@H]1C)C[C@H](O)[C@H]2C(=O)O [AMPHOTERICIN B]	–	–	–	–	–	–	–	–	–	–	–	–	–	–	–	–	–	viability at 24 h, 128 ug/ml [1]: 30.5%
C[C@@H](c1ncncc1F)[C@](O)(Cn1cncn1)c1ccc(F)cc1F [VORICONAZOLE]	0.008 µg/mL	0.016 µg/mL	0.5 µg/mL	0.0313 µg/mL	1 µg/mL	0.0313 µg/mL	0.008 µg/mL	2 µg/mL	0.0313 µg/mL	0.063 µg/mL	0.0313 µg/mL	8 µg/mL	0.25 µg/mL	0.25 µg/mL	0.063 µg/mL	0.0313 µg/mL	0.0313 µg/mL	–
CC(=O)N1CCN(c2ccc(OCC3COC(Cn4ccnc4)(c4ccc(Cl)cc4Cl)O3)cc2)CC1 (centres undefined) [KETOCONAZOLE]	8 µg/mL	0.5 µg/mL	0.25 µg/mL	0.5 µg/mL	0.25 µg/mL	1 µg/mL	0.25 µg/mL	8 µg/mL	0.5 µg/mL	1 µg/mL	0.5 µg/mL	64 µg/mL	1 µg/mL	2 µg/mL	1 µg/mL	1 µg/mL	2 µg/mL	–
C[C@@H](OCc1ccn(Cc2ccc(Br)cc2)n1)[C@](O)(Cn1cncn1)c1ccc(F)cc1F	–	–	–	–	–	–	–	–	–	–	–	–	–	–	–	–	–	MIC ([Candida] auris [19]): 8 µg/mL (≈ 15.4 µM); Ratio (Candida tropicalis [20]): 256; MIC (Candida tropicalis [21]): 0.25 µg/mL (≈ 0.482 µM); MIC (Candida parapsilosis): 0.25 µg/mL (≈ 0.482 µM); MIC (Cryptococcus neoformans): 0.25 µg/mL (≈ 0.482 µM); MIC ([Candida] auris [22]): 8 µg/mL (≈ 15.4 µM); MIC (Candida albicans [23]): ≤ 0.125 µg/mL; MIC (Candida albicans [24]): 32 µg/mL (≈ 61.7 µM); MIC ([Candida] auris [25]): 16 µg/mL (≈ 30.9 µM); MIC (Nakaseomyces glabratus): ≤ 0.125 µg/mL; MIC (Candida albicans [26]): ≤ 0.125 µg/mL; MIC (Pichia kudriavzevii): 2 µg/mL (≈ 3.86 µM); MIC (Candida albicans [27]): 16 µg/mL (≈ 30.9 µM); Ratio (Candida tropicalis [28]): 32
